Reference: ChEMBL document CHEMBL6115018, “MrgX2-Targeting Ligand Screen for Antipseudoallergic Agents by Immobilized His-Tag-Fused Protein Technology” (J Med Chem, 2025)
Activity calls are given as the source filed them. The rule behind the calls is not given here.

Columns and labels:
[1] = molecular target: T1, Mas-related G-protein coupled receptor member X2 (Homo sapiens) (UniProt Q96LB1); test: Competitive binding affinity to MrgX2 (unknown origin) assessed as retention time of compound at 1 x 10^-7mol/L by zonal elution method (reference value: 58.73 min); conditions: dose 1.0 10^-7mol/L
T1 sequence (whole entry): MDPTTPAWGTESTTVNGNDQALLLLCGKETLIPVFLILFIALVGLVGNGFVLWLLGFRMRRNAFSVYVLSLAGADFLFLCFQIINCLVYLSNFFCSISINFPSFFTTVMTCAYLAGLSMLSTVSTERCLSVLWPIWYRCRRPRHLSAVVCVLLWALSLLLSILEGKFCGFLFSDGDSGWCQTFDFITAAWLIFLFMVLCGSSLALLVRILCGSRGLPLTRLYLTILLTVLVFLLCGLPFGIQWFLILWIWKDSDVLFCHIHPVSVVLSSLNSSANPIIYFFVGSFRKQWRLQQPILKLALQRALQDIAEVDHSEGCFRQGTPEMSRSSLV

[2] = molecular target: T1, Mas-related G-protein coupled receptor member X2 (Homo sapiens); test: Competitive binding affinity to MrgX2 (unknown origin) assessed as retention time of compound at 8 x 10^-8mol/L by zonal elution method (reference value: 58.73 min); conditions: dose 8.0 10^-8mol/L
[3] = molecular target: T1, Mas-related G-protein coupled receptor member X2 (Homo sapiens); test: Competitive binding affinity to MrgX2 (unknown origin) assessed as retention time of compound at 2 x 10^-8mol/L by zonal elution method (reference value: 58.73 min); conditions: dose 2.0 10^-8mol/L
[4] = molecular target: T1, Mas-related G-protein coupled receptor member X2 (Homo sapiens); test: Competitive binding affinity to MrgX2 (unknown origin) assessed as retention time of compound at 4 x 10^-8mol/L by zonal elution method (reference value: 58.73 min); conditions: dose 4.0 10^-8mol/L
[5] = Cytotoxicity against human LAD2 cells assessed as cell viability incubated for 24 hrs by CCK8 assay relative to control; assay type: toxicity, cell-based; conditions: read-out: Activity
[6] = test system: Mus musculus; test: Anti-pseudoallergic activity in C48/80-induced male C57BL/6 mouse model assessed as reduction in paw thickness at 0.5 to 1.0 mg/mL administered via gavage for 2 hrs by vernier caliper based analysis; assay type: functional, organism-based; conditions: dose 0.5-1 mg/ml
[7] = test system: Mus musculus; test: Anti-pseudoallergic activity in C48/80-induced male C57BL/6 mouse model assessed as reduction in serum histamine release at 1 to 10 mg/kg, preadministered with compound via gavage for 2 hrs followed by C48/80 administration and measured after 1 hrs by UHPLC-ESI-MS/MS analysis; assay type: functional, organism-based; conditions: dose 1-10 mg/kg, time 3.0 hrs
[8] = test system: LAD2; test: Anti-pseudoallergic activity in human LAD2 cells assessed as inhibition of C48/80-induced beta-aminohexosidase release preincubated for 30 mins followed by SP addition and measured after 30 mins by absorbance based microplate reader analysis; assay type: functional, cell-based
[9] = test system: LAD2; test: Anti-pseudoallergic activity in human LAD2 cells assessed as inhibition of SP-induced histamine release preincubated for 30 mins followed by SP addition and measured after 30 mins by UHPLC-ESI-MS/MS analysis; assay type: functional, cell-based; conditions: dose 1-10 µM, time 60.0 min
[10] = test system: Mus musculus; test: Anti-pseudoallergic activity in C48/80-induced male C57BL/6 mouse model assessed as reduction in mast cell degranulation at 1 mg/mL administered via gavage for 2 hrs by Toluidine blue staining based analysis; assay type: functional, organism-based
[11] = test system: LAD2; test: Anti-pseudoallergic activity in human LAD2 cells assessed as inhibition of SP-induced beta-aminohexosidase release at 50 uM preincubated for 30 mins followed by SP addition and measured after 30 mins by absorbance based microplate reader analysis relative to control; assay type: functional; conditions: LAD2, 1 h, time 60 min
[12] = test system: Mus musculus; test: Anti-pseudoallergic activity in C48/80-induced male C57BL/6 mouse model assessed as reduction in evans blue extravasation at 1.0 mg/mL administered via gavage for 2 hrs by absorbance based assay; assay type: functional, organism-based
[13] = test system: LAD2; test: Anti-pseudoallergic activity in human LAD2 cells assessed as inhibition of SP-induced TNF-alpha release incubated for 6 hrs by ELISA analysis; assay type: functional, cell-based; conditions: dose 1-10 µM
[14] = test system: LAD2; test: Anti-pseudoallergic activity in human LAD2 cells assessed as inhibition of SP-induced beta-aminohexosidase release preincubated for 30 mins followed by SP addition and measured after 30 mins by absorbance based microplate reader analysis; assay type: functional, cell-based

SMILES	Retention time [1]	Retention time [2]	Retention time [3]	Retention time [4]	viability at 24 h [5]	Activity [6]	Activity [7]	IC50 [8]	Activity ([8]; time 60.0 min)	Activity [9]	Activity [10]	inhibition at 50 µM [11]	Activity [12]	Activity [13]	IC50 [14]	Activity ([14]; time 60.0 min)
CN(C)[C@@H]1CCN(c2cc(-c3ccccc3)nc3ccnn23)C1	23.7 min	29.2 min	56.1 min	46.3 min	–	–	–	–	–	–	–	–	–	–	–	–
O=C(CSc1nnc(-c2ccccc2)c(-c2ccccc2)n1)Nc1ccc(Cl)cc1Cl	–	–	–	–	> 85%	Active	Active	6.18 µM	Dose-dependent-effect	Dose-dependent-effect	Active	75%	Active	Dose-dependent-effect	4.9 µM	Dose-dependent-effect
